In the supplement of paper PMC10307832:

Columns and labels:
Test in all cases: relative viability (nuclei count vs DMSO), 5 days (fraction); higher = more cells survive
[1] = compound: Cc1ccc(C(=O)Nc2cccc(C(F)(F)F)c2)cc1Nc1cncc(C(N)=O)c1 [ALW-II-49-7]
In short: (§1)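 MetaXpress counted nuclei in 4× images of lung cancer cell lines that had been fixed, permeabilised and Hoechst-stained in one step. Before that, cells in 1536-well plates were kept overnight at 37 °C, pinned with five √10-spaced library-drug doses on vehicle-anchored plates, and cultured 5 days without medium change. Viability takes treated-well nuclei over vehicle-well nuclei and uses the median across plates. Plates were accepted only at control CV below 25% and at least one doubling.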

[2] = compound: Cc1nc(Nc2ncc(C(=O)Nc3c(C)cccc3Cl)s2)cc(N2CCN(CCO)CC2)n1 [Dasatinib]
In short: as §1

[3] = compound: C1CC1C(=O)NC2=NNC3=C2C=CC(=C3)C4=CC(=CC=C4)C(=O)NC5CC5 [XMD13-2]
In short: as §1

| Cell Line | relative viability ([1]; 0.08 µM) | relative viability ([1]; 0.253 µM) | relative viability ([1]; 0.8 µM) | relative viability ([1]; 2.53 µM) | relative viability ([1]; 8 µM) | relative viability ([2]; 0.005 µM) | relative viability ([2]; 0.01581 µM) | relative viability ([2]; 0.05 µM) | relative viability ([2]; 0.075 µM, anchor plate) | relative viability ([2]; 0.1581 µM) | relative viability ([2]; 0.5 µM) | relative viability ([3]; 0.05 µM) | relative viability ([3]; 0.1581 µM) | relative viability ([3]; 0.5 µM) | relative viability ([3]; 1.581 µM) | relative viability ([3]; 5 µM) |
| --- | --- | --- | --- | --- | --- | --- | --- | --- | --- | --- | --- | --- | --- | --- | --- | --- |
| NCI-H1993 | 0.899 | 0.952 | 1.07 | 1.07 | 1.01 | 0.793 | 0.653 | 0.856 | 0.625 | 0.736 | 0.507 | 1.07 | 0.895 | 0.885 | 0.822 | 0.925 |
| NCI-H2009 | 0.967 | 1.04 | 0.93 | 0.844 | 0.709 | 1.07 | 0.988 | 0.929 | 0.303 | 0.456 | 0.236 | 0.989 | 1.13 | 1.22 | 1.04 | 1.07 |
| NCI-H2023 | 0.965 | 0.963 | 0.995 | 0.96 | 0.911 | 0.883 | 0.888 | 0.735 | 0.592 | 0.648 | 0.593 | 1.18 | 1 | 0.992 | 0.986 | 1.02 |
| NCI-H2085 | 1.01 | 1.05 | 0.985 | 1.03 | 0.995 | 0.981 | 0.904 | 0.804 | 0.255 | 0.356 | 0.218 | 1.06 | 0.981 | 1.04 | 0.871 | 1.06 |
| NCI-H2087 | 1.07 | 1.01 | 1.06 | 1.02 | 0.915 | 1.02 | 0.941 | 1.23 | 0.856 | 0.937 | 0.453 | 1.3 | 1.19 | 1.17 | 1.01 | 0.962 |
| NCI-H2126 | 0.918 | 1.03 | 1.02 | 0.926 | 0.992 | 0.98 | 0.864 | 0.945 | 0.643 | 0.814 | 0.403 | 1.02 | 0.949 | 1.02 | 1.03 | 1.03 |
| NCI-H2170 | 1 | 0.969 | 0.973 | 0.908 | 0.966 | 0.961 | 0.914 | 0.784 | 0.61 | 0.585 | 0.378 | 1.03 | 0.954 | 0.986 | 1.01 | 0.881 |
| NCI-H2228 | 1.09 | 0.783 | 0.735 | 0.904 | 0.85 | 0.994 | 0.869 | 0.94 | 0.535 | 0.645 | 0.442 | 1.16 | 0.99 | 1.27 | 1.06 | 1.17 |
| NCI-H2342 | 0.866 | 1.04 | 0.98 | 0.925 | 0.951 | 0.967 | 0.632 | 0.834 | 0.311 | 0.535 | 0.309 | 1.1 | 0.97 | 1.03 | 0.804 | 0.972 |
| NCI-H2347 | 1.05 | 0.968 | 1.04 | 0.973 | 0.949 | 0.913 | 0.838 | 0.659 | 0.314 | 0.452 | 0.333 | 1.05 | 1.02 | 1.06 | 1.08 | 0.935 |
| NCI-H2405 | 1.01 | 1.06 | 0.961 | 0.963 | 0.802 | 0.842 | 0.726 | 0.533 | 0.205 | 0.305 | 0.222 | 1.09 | 0.986 | 1.05 | 0.883 | 1.08 |
| NCI-H3122 | 1.05 | 0.868 | 1.06 | 1.05 | 1.07 | 1.02 | 1.04 | 1.06 | 0.766 | 1.01 | 0.87 | 1.01 | 1 | 1.03 | 1.01 | 1.01 |
| PC-3 [JPC-3] | 1.08 | 1.04 | 1.04 | 1.13 | 0.971 | 1.08 | 1.01 | 1.04 | 0.971 | 1.02 | 0.59 | 1.06 | 1.05 | 1.06 | 1.02 | 1.17 |
| PC-14 | 0.933 | 0.98 | 0.95 | 0.961 | 0.898 | 1.12 | 0.98 | 0.877 | 0.264 | 0.65 | 0.234 | 1.08 | 1.04 | 1.07 | 0.98 | 1.13 |
| RERF-LC-KJ | 1.02 | 1.06 | 0.997 | 0.911 | 0.939 | 1.01 | 0.928 | 0.944 | 0.781 | 0.841 | 0.704 | 1.08 | 0.942 | 1.05 | 0.938 | 0.912 |
| SK-LU-1 | 1.04 | 1.11 | 1.07 | 0.769 | 0.746 | 0.823 | 0.542 | 0.42 | 0.174 | 0.312 | 0.25 | 1.07 | 1.03 | 1.19 | 1.05 | 0.924 |
| SK-MES-1 | 0.957 | 0.97 | 0.963 | 0.851 | 0.742 | 1.05 | 0.922 | 0.964 | 0.385 | 0.61 | 0.215 | 1.13 | 1.01 | 1.03 | 0.968 | 1.07 |
| SW 900 | 0.826 | 0.975 | 0.736 | 1.03 | 0.622 | 0.67 | 0.733 | 0.647 | 0.701 | 0.405 | 0.254 | 0.96 | 0.765 | 0.924 | 0.741 | 1.03 |
| SW 1573 | 0.976 | 1.12 | 1.04 | 1.05 | 0.938 | 0.931 | 0.915 | 0.839 | 0.517 | 0.672 | 0.564 | 1.08 | 0.998 | 1.09 | 0.941 | 0.874 |
